Results reported in PubChem BioAssay (NCI).
Several values for one entry are separate records, joined by “and”; a condition that tells them apart may be missing. Identical values can stand only once.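 Compound exposure: 48 hours, 5 concentrations, 96-well plates. GI50 = concentration required for 50% inhibition of growth. Definition used: TGI = concentration required for complete inhibition of growth.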

Legend:
Assay in all cases: DTP human tumour cell line panel, 48 h
DMS 114 small cell lung = tested on: DMS 114 small cell lung
DMS 273 small cell lung = tested on: DMS 273 small cell lung
RXF-631 renal = tested on: RXF-631 renal
XF 498 CNS = tested on: XF 498 CNS
BT-549 breast = tested on: BT-549 breast
MDA-N = tested on: MDA-N
T-47D breast = tested on: T-47D breast
HOP-18 NSCLC = tested on: HOP-18 NSCLC
M19-MEL melanoma = tested on: M19-MEL melanoma

SMILES	TGI (DMS 114 small cell lung) [µM]	TGI (DMS 273 small cell lung) [µM]	TGI (BT-549 breast)	TGI (T-47D breast)	GI50 (BT-549 breast)	GI50 (T-47D breast)	also measured
O=C(O)C(SC(=S)c1ccc(C(=S)SC(C(=O)O)c2ccccc2)cc1)c1ccccc1 (stereo unspecified)	> 100	> 100					TGI (RXF-631 renal): > 100 µM; TGI (XF 498 CNS): > 100 µM
COC(=O)C1(C)CCC(c2ccc(C)cc2)=C(CC(=O)O)C1 (stereo unspecified)			> 100 µM	> 100 µM			TGI (MDA-N): > 100 µM
COc1c(C)c2c(c(O)c1C/C=C(\C)CCC(=O)O)C(=O)OC2	78.3	> 100	> 100 µM	> 100 µM	0.818 µM	0.663 µM	TGI (HOP-18 NSCLC): > 100 µM; TGI (M19-MEL melanoma): > 100 µM; TGI (MDA-N): > 100 µM
C=C1C(=O)O[C@H]2[C@H]1CC/C(COC(=O)NCc1cn(C)c3ccccc13)=C\CC[C@@]1(C)O[C@@H]21			1.88 µM		0.469 µM		
O=[N+]([O-])c1cc(C(F)(F)F)cc([N+](=O)[O-])c1CCl	1.95	2.62					TGI (HOP-18 NSCLC): 3.6 µM; TGI (M19-MEL melanoma): 3.64 µM; TGI (RXF-631 renal): 10.4 µM
CCOc1ccccc1N1C(=O)C(=O)C(c2nc3ccccc3o2)C(=O)C1=O	> 100	> 100					TGI (HOP-18 NSCLC): > 100 µM; TGI (M19-MEL melanoma): > 100 µM; TGI (RXF-631 renal): > 100 µM
COc1ccc(-c2nc(-c3nc4ccc(OC)cc4[nH]3)c3ccccn23)cc1			8.86 µM	9.75 µM	3.2 µM	2.7 µM	
CCOC(=O)N1CCN(C=S)CC1	> 100	> 100					TGI (HOP-18 NSCLC): > 100 µM; TGI (M19-MEL melanoma): > 100 µM; TGI (RXF-631 renal): > 100 µM
CCOc1ccc2c(c1)[n+]([O-])c(-c1ccc(Cl)cc1)c(N)[n+]2[O-]	> 100	> 100					TGI (HOP-18 NSCLC): > 100 µM
CCN(CC)CCCC(C)Nc1ccnc2cc(Oc3ccccc3)ccc12 (stereo unspecified)			21.3 µM and 30.4 µM	3.32 µM and 6.19 µM	7.77 µM and 14.9 µM	1.68 µM and 2.39 µM	
CN[C@@H](C)C(=O)N[C@H](C(=O)N1CCC[C@H]1C(=O)Nc1snnc1-c1ccccc1)C1CCCCC1			> 81.5 µM	> 100 µM		57.5 µM	
C=C(C)C(=O)Nc1ccc(NC(C)C)cc1			> 100 µM	> 100 µM	> 100 µM	> 100 µM	
CCC(C)(CC(C)(C)C(=O)NCC(=O)NC(Cc1ccccc1)C(=O)NC(Cc1ccccc1)C(=O)NCC(=O)NC1CC(OC2CC(O)(C(=O)CO)Cc3c(O)c4c(c(O)c32)C(=O)c2c(OC)cccc2C4=O)OC(C)C1O)C(=O)NCC(C)O (stereo unspecified)				> 150 µg/mL		70.3 µg/mL	GI50 (MDA-N): 120 µg/mL; TGI (MDA-N): > 150 µg/mL
Cc1ccc(S(=O)(=O)N/N=C/c2c(O)ccc3ccccc23)cc1			59.6 µM	> 100 µM			TGI (MDA-N): > 100 µM
CCCCNc1nc(C#N)c(N)s1		> 100					TGI (RXF-631 renal): > 100 µM; TGI (XF 498 CNS): > 100 µM
O=[N+]([O-])O.[Cu+2].[NH-]CC[NH-].[NH-]CC[NH-]			> 10 µM	> 10 µM	> 10 µM	> 10 µM	GI50 (MDA-N): > 10 µM; TGI (MDA-N): > 10 µM
COc1ccc(C(=O)OC2C(OC3C(O)COC(O[C@H]4C[C@H]5[C@@H]6CC=C7C[C@@H](O)CC[C@]7(C)[C@H]6CC[C@]5(C)[C@H]4[C@H](C)C(=O)CCC(C)C)C3OC(N)=O)OCC(O)C2O)cc1 (stereo partly specified)			3.71 µM	2.02 µM	< 0.003 µM	0.0501 µM	
